In patent US20220186188A1, “Method for Obtaining Pancreatic Progenitor Cells and Pancreatic Islet Beta Cells By Means of Differentiation of Human Pluripotent Stem Cells” (Asia Regenerative Medicine, Ltd., priority 2019, published 2022):

How the values were obtained:
Assay type in all cases: cell-based
[1] = test system: pancreatic progenitor cells and pancreatic islet β cells differentiated from human embryonic stem cells; experiment: Real-time fluorescence quantitative PCR of PDX1, NKX6-1 and INS mRNA (human embryonic stem cells); conditions: qPCR
Protocol: (§1) a pancreatic progenitor cell medium was prepared, the medium in step 1) was replaced with the pancreatic progenitor cell medium, and the cells were cultured in a carbon dioxide incubator at 37 degrees Celsius for 5 days, during which the medium was replaced every day, wherein the composition of the pancreatic progenitor cell medium was: with an MCDB131 medium as a basic medium, and the following components at the working concentrations were further included: 0.5% of bovine serum albumin (BSA), 1.5 g/L of sodium bicarbonate, 1×glutamine (GlutaMAX), 10 mM glucose, 0.25 M vitamin C, 1×insulin-transferrin-selenium-ethanolamine additive (ITS-X), 50 ng/ml of fibroblast growth factor 7 (KGF), 0.5 μM SANT1 (with smo as an inhibitor target), 100 nM retinoic acid (TTNPB), 500 nM phorbol 12,13-dibutyrate (PDBu), 2 μM ALK inhibitor (K02288), and 2 μM WNT signaling pathway inhibitor XAV-939 (not added in a control group), with the concentrations all being final concentrations.
(§2) b. pancreatic islet β cell medium 2 was prepared, the pancreatic islet β cell medium 1 in above-mentioned step a was replaced with the pancreatic islet β cell medium 2, and the cells were cultured in a carbon dioxide incubator at 37 degrees Celsius for 5 days, during which the medium was replaced every day, wherein the composition of the pancreatic islet β cell medium 1 was: with an MCDB131 medium as a basic medium, and the following components at the working concentrations were further included: 20 mM glucose, 2% of bovine serum albumin (BSA), 1.5 g/L of sodium bicarbonate, 1×glutamine (GlutaMAX), 0.05 mM vitamin C, 1×insulin-transferrin-selenium-ethanolamine additive (ITS-X), 2 μM ALK inhibitor (K02288), 1 μM triiodothyronine (T3), 10 μM YO-01027 (Notch signaling pathway inhibitor), and 10 μM zinc sulfate, with the concentrations all being final concentrations; and the composition of the pancreatic islet β cell medium 2 was: with an MCDB131 medium as a basic medium, and the following components at the working concentrations were further included: 20 mM glucose, 2% of bovine serum albumin (BSA), 1.5 g/L of sodium bicarbonate, 1×glutamine (GlutaMAX), 0.05 mM vitamin C, 1×insulin-transferrin-selenium-ethanolamine additive (ITS-X), 1 μM triiodothyronine (T3), 10 μM Repsox (ALK5 inhibitor), 10 μM vitamin E, 10 μg/ml of heparin sodium, 2 μM R428 (Axl inhibitor), 10 μM zinc sulfate, and 10 mM N-acetyl-L-cysteine (N-cys), with the concentrations all being final concentrations.
Cells cultured in a 24-well plate were collected, and washed twice with 500 μl of DPBS at first, then covered with 200 μl of chymotrypsin-trypsin (Trypsin), and placed at 37° C. for 5 minutes of digestion. Whether the cells float in pieces was observed, and the digestion was terminated using 500 μl of DMEM/F12 medium, then the product was centrifuged at 1000 rpm for 3 minutes, the supernatant was removed, and cell pellets were collected and added to a new RNase-free centrifuge tube. […]

[2] = test system: pancreatic progenitor cells and pancreatic islet β cells differentiated from human embryonic stem cells; experiment: Immunofluorescence detection of PDX1 and PDX1/INS proteins (human embryonic stem cells)
Protocol: as §1, §2
Cells in a culture plate were washed three times with a phosphate buffered saline (PBS), 3 minutes each time; the cells were fixed with 4% paraformaldehyde at room temperature for 20 minutes, and washed three times with PBS, 3 minutes each time; a blocking solution was prepared in advance (by adding Triton at a final concentration of 0.3% to 9 ml of DPBS, adding donkey serum at a final concentration of 10%, and uniformly mixing); the above-prepared blocking solution was used for blocking and perforation at room temperature for 2 hours; the blocking solution was soaked up, a working concentration of primary antibody prepared with the blocking solution was then added, and the product was left to stand at room temperature for 30 minutes and then placed in a refrigerator at 4° C. overnight; the next day, the product was washed three times with PBS, 3 minutes each time; a fluorescent secondary antibody of donkey serum was added and incubation was carried out at room temperature for 2 hours; in the same way, the product was washed three times with PBS, 3 minutes each time; the product was incubated with a working solution of the nuclear dye DAPI at room temperature for 10 minutes, and washed three times with PBS, 3 minutes each time; then a fluorescence microscope was used for observation and data were collected. […]

[3] = test system: pancreatic progenitor cells differentiated from human embryonic stem cells; experiment: Flow cytometry detection of PDX1 in the pancreatic progenitor cell stage (human embryonic stem cells); conditions: 2 μM inhibitor in pancreatic progenitor cell medium, 5 days, compared with control group without WNT inhibitor
Protocol: as §1, with “concentrations. […]” for “concentrations.”

[4] = 2 μM inhibitor in pancreatic progenitor cell stage, GAPDH reference
[5] = 2 μM inhibitor in pancreatic progenitor cell stage

**Q.** Which “transcription level of the insulin gene INS in the mature pancreatic islet β cell stage” value ([1]; 2 μM inhibitor added in pancreatic progenitor cell stage) does the source give for `O=C(Nc1cccc2cccnc12)c1ccc(N2C(=O)[C@@H]3[C@H](C2=O)[C@@H]2C=C[C@H]3C2)cc1` [IWR-1] here?
**A.** Its value is “greatly increased”.

**Q.** And the “relative expression of mRNA of NKX6-1 in pancreatic progenitor cells” value [1, 4]?
**A.** Its value is “significantly increased”.

**Q.** And the “relative expression of mRNA of PDX1 in pancreatic progenitor cells” value [1, 4]?
**A.** Its value is “significantly increased”.

**Q.** And the “number of insulin INS-positive and PDX1 co-stained pancreatic islet β cells in the mature pancreatic islet β cell stage” value ([2]; 2 μM inhibitor added in pancreatic progenitor cell stage, immunofluorescence)?
**A.** The value was “significantly increased”.

**Q.** What about the “PDX1-positive pancreatic progenitor cells (immunofluorescence)” value [2, 5] of the same compound?
**A.** The value was “significantly increased”.

**Q.** What about the “cell growth (total cell number by DAPI)” value [2, 5] of the same compound?
**A.** The value was “did not affect the cell growth”.

**Q.** And the “PDX1-positive pancreatic progenitor cells (flow cytometry)” value [3]?
**A.** Its value is “significantly increased”.
